Data taken from patent US20230113037A1 (Bayer Aktiengesellschaft, priority 2019, published 2023).
Like-named read-outs stand apart in the source and are kept apart here.

Tests used:
AHR [1] = biological target: T1, AHR (Homo sapiens, UniProt P35869); assay: In vitro assay 1: antagonism in human cell line (AHR transactivation, firefly luciferase reporter, kynurenic acid prestimulated); format: cell-based; settings: AHR Antagonism Human IC50 [M]
T1 construct: U87 MG glioblastoma cells (ATCC #HTB-14) endogenously expressing AHR; endogenous in cells; host or cells: U87 MG glioblastoma cells (ATCC #HTB-14)
T1 sequence (P35869 11-848): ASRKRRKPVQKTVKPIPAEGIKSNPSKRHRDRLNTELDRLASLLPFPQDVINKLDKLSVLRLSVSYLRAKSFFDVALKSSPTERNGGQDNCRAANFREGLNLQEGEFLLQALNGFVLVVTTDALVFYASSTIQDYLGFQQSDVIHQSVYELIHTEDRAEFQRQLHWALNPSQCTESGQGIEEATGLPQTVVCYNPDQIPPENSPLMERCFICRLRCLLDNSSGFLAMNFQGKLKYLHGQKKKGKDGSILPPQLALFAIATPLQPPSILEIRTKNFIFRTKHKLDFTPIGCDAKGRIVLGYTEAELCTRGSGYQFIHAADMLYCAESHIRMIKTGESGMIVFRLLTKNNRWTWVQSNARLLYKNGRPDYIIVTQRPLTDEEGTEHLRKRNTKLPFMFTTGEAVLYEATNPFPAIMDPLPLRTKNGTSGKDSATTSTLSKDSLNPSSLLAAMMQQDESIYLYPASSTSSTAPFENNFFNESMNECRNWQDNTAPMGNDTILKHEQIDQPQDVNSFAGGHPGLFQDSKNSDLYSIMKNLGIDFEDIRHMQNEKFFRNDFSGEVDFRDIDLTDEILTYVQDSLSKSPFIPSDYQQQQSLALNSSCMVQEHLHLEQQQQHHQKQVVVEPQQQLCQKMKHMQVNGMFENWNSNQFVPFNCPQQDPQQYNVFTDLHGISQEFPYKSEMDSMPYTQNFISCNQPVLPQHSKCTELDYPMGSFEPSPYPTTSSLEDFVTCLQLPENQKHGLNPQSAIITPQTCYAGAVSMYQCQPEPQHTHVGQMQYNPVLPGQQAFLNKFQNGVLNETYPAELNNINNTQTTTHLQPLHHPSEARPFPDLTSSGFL
Outline: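 U87 MG glioblastoma cells with endogenous AHR, stably carrying a DRE-driven firefly luciferase reporter and constitutive Renilla reporter, prestimulated with kynurenic acid before compound addition. Firefly and Renilla read by dual luciferase; Renilla flags toxicity; normalized to controls (150 μM kynurenic acid + 5 μM staurosporine as full inhibition); repeat values averaged or median.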

AHR [2] = biological target: T2, AHR (Mus musculus, UniProt P30561); assay: In vitro assay 3: antagonism in mouse cell line (AHR transactivation, firefly luciferase reporter, kynurenic acid prestimulated); format: cell-based
T2 sequence (P30561 1-848 P471L/N533S/M589L): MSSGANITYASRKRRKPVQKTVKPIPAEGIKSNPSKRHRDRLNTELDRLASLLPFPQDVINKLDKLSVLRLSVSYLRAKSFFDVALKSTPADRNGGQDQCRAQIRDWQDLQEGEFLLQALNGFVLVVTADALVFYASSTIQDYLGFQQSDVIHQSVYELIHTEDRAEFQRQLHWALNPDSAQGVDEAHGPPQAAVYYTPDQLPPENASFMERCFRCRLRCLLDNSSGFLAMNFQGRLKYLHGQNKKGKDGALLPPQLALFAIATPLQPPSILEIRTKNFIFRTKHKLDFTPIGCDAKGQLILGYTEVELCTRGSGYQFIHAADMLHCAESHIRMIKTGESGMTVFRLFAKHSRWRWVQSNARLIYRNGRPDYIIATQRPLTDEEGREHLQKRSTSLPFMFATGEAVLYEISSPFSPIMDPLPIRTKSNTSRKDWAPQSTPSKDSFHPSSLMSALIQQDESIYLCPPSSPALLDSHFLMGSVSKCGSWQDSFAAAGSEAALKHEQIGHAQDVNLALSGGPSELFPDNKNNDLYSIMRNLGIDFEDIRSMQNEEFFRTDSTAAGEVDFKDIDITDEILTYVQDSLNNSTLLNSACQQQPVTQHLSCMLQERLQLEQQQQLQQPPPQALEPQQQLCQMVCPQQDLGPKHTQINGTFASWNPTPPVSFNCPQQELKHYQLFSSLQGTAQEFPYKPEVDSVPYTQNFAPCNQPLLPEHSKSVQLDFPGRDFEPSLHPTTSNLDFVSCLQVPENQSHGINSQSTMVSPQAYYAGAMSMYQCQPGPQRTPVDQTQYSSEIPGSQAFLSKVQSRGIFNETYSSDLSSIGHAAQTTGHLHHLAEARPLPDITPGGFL
Outline: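 Mouse cells stably carrying a DRE-driven, AHR-inducible firefly luciferase reporter were prestimulated with the endogenous agonist kynurenic acid before compound addition. Luciferase activity was measured by luminescence and normalized to positive and negative controls, with cells lacking kynurenic acid serving as full-inhibition control. Repeat tests are reported as mean or median.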

[3] = mouse Hepa 1c1c7 cells, 200 μM kynurenic acid, 20 hours, read-out: AHR Antagonism Mouse IC50

| IC50 (AHR [1]) [M] | IC50 (AHR [2]; [3]) [nM] | SMILES | IC50 (AHR [2]; read-out: AHR Antagonism Mouse IC50, mouse Hepa 1c1c7 cells, 200 μM kynurenic acid, 20 hours) [nM] |
| --- | --- | --- | --- |
| 1.71e-06 | > 20000 | COc1cscc1-c1nc2c3ccccc3nc(N[C@@H]3CCN(C)C3=O)n2n1 [Example 337, (3R)-3-{[2-(4-methoxythiophen-3-yl)[1,2,4]triazolo[1,5-c]quinazolin-5-yl]amino}-1-methylpyrrolidin-2-one] |  |
| 1.91e-07 | 53.9 | CC[C@@H](Nc1nc2ccccc2c2nc(-c3cscc3OC)nn12)C(N)=O [Example 338, (2R)-2-{[2-(4-methoxythiophen-3-yl)[1,2,4]triazolo[1,5-c]quinazolin-5-yl]amino}butanamide] |  |
| 3.37e-07 | 169 | CCC[C@@H](Nc1nc2ccccc2c2nc(-c3cscc3OC)nn12)C(=O)NC [Example 339, N^2-[2-(4-methoxythiophen-3-yl)[1,2,4]triazolo[1,5-c]quinazolin-5-yl]-N-methyl-D-norvalinamide] |  |
| 7.33e-10 | 0.517 | O=C1NCCCC[C@H]1Nc1nc2ccccc2c2nc(-c3ccsc3)nn12 [Example 340, (3R)-3-{[2-(thiophen-3-yl)[1,2,4]triazolo[1,5-c]quinazolin-5-yl]amino}azepan-2-one] |  |
| 1.18e-07 | 17.7 | O=C1NCCCC[C@@H]1Nc1nc2ccccc2c2nc(-c3ccsc3)nn12 [Example 341] |  |
| 2.21e-07 | 175 | O=C1NCC[C@H]1Nc1nc2ccccc2c2nc(-c3ccsc3)nn12 [Example 342, (3R)-3-{[2-(thiophen-3-yl)[1,2,4]triazolo[1,5-c]quinazolin-5-yl]amino}pyrrolidin-2-one] |  |
| 6.67e-08 | 178 | O=C1NCCC[C@H]1Nc1nc2ccccc2c2nc(-c3ccsc3)nn12 [Example 343, (3R)-3-{[2-(thiophen-3-yl)[1,2,4]triazolo[1,5-c]quinazolin-5-yl]amino}piperidin-2-one] |  |
| 3.57e-09 | 0.628 | CC[C@@H](Nc1nc2ccccc2c2nc(-c3ccsc3)nn12)C(N)=O [Example 344] |  |
| 1.24e-07 | 27 | CN1CC[C@@H](Nc2nc3ccccc3c3nc(-c4ccsc4)nn23)C1=O [Example 345, (3R)-1-methyl-3-{[2-(thiophen-3-yl)[1,2,4]triazolo[1,5-c]quinazolin-5-yl]amino}pyrrolidin-2-one] |  |
| 1.17e-07 | 4.28 | Cc1sccc1-c1nc2c3ccccc3nc(N[C@H]3CCCCNC3=O)n2n1 [Example 347] |  |
| 7.76e-08 | 37.4 | Cc1sccc1-c1nc2c3ccccc3nc(N[C@@H]3CCCNC3=O)n2n1 [Example 348, (3R)-3-{[2-(2-methylthiophen-3-yl)[1,2,4]triazolo[1,5-c]quinazolin-5-yl]amino}piperidin-2-one] |  |
| 5.16e-08 | 11.5 | Cc1sccc1-c1nc2c3ccccc3nc(N[C@@H]3CCNC3=O)n2n1 [Example 349, (3R)-3-{[2-(2-methylthiophen-3-yl)[1,2,4]triazolo[1,5-c]quinazolin-5-yl]amino}pyrrolidin-2-one] |  |
| 4.13e-08 | 3.59 | Cc1sccc1-c1nc2c3ccccc3nc(N[C@@H]3CCN(C)C3=O)n2n1 [Example 350] |  |
| 1.37e-09 | 0.125 | CC[C@@H](Nc1nc2ccccc2c2nc(-c3ccsc3C)nn12)C(N)=O [Example 351] |  |
| 2.36e-07 | 27.4 | Cc1cc(-c2nc3c4ccccc4nc(N[C@H]4CCCCNC4=O)n3n2)cs1 [Example 353] |  |
| 4.05e-08 | 78.2 | Cc1cc(-c2nc3c4ccccc4nc(N[C@@H]4CCCNC4=O)n3n2)cs1 [Example 354, (3R)-3-{[2-(5-methylthiophen-3-yl)[1,2,4]triazolo[1,5-c]quinazolin-5-yl]amino}piperidin-2-one] |  |
| 3.79e-08 | 36.6 | Cc1cc(-c2nc3c4ccccc4nc(N[C@@H]4CCN(C)C4=O)n3n2)cs1 [Example 355] |  |
| 2.71e-08 | 30.4 | Cc1cc(-c2nc3c4ccccc4nc(N[C@@H]4CCNC4=O)n3n2)cs1 [Example 356, (3R)-3-{[2-(5-methylthiophen-3-yl)[1,2,4]triazolo[1,5-c]quinazolin-5-yl]amino}pyrrolidin-2-one] |  |
| 3.15e-09 | 1.78 | CC[C@@H](Nc1nc2ccccc2c2nc(-c3csc(C)c3)nn12)C(N)=O [Example 358] |  |
| > 2e-05 | 93.4 | O=C1NCCCC[C@H]1Nc1nc2ccccc2c2nc(-c3cc(C(F)(F)F)cc(C(F)(F)F)c3)nn12 [Example 359, (3R)-3-({2-[3,5-Bis(trifluoromethyl)phenyl][1,2,4]triazolo[1,5-c]quinazolin-5-yl}amino)azepan-2-one] |  |
| > 2e-05 | 5440 | O=C1NCC[C@H]1Nc1nc2ccccc2c2nc(-c3cc(C(F)(F)F)cc(C(F)(F)F)c3)nn12 [Example 360, (3R)-3-({2-[3,5-bis(trifluoromethyl)phenyl][1,2,4]triazolo[1,5-c]quinazolin-5-yl}amino)pyrrolidin-2-one] |  |
| > 2e-05 | 66.8 | CC[C@@H](Nc1nc2ccccc2c2nc(-c3cc(C(F)(F)F)cc(C(F)(F)F)c3)nn12)C(N)=O [Example 361, (2R)-2-({2-[3,5-bis(trifluoromethyl)phenyl][1,2,4]triazolo[1,5-c]quinazolin-5-yl}amino)butanamide] |  |
| 1.91e-08 | 3.54 | O=C1NCCCC[C@H]1Nc1nc2ccccc2c2nc(-c3cncc(C(F)(F)F)c3)nn12 [Example 362, (3R)-3-({2-[5-(trifluoromethyl)pyridin-3-yl][1,2,4]triazolo[1,5-c]quinazolin-5-yl}amino)azepan-2-one] |  |
| > 2e-05 | 593 | O=C1NCC[C@H]1Nc1nc2ccccc2c2nc(-c3cc(C(F)(F)F)ccn3)nn12 [Example 366, (3R)-3-({2-[4-(trifluoromethyl)pyridin-2-yl][1,2,4]triazolo[1,5-c]quinazolin-5-yl}amino)pyrrolidin-2-one] |  |
| 1.91e-07 | 10.5 | CC[C@@H](Nc1nc2ccccc2c2nc(-c3cc(C(F)(F)F)ccn3)nn12)C(N)=O [Example 367, (2R)-2-({2-[4-(trifluoromethyl)pyridin-2-yl][1,2,4]triazolo[1,5-c]quinazolin-5-yl}amino)butanamide] |  |
| 5e-08 | 24.8 | CCC[C@@H](Nc1nc2ccccc2c2nc(-c3cc(C(F)(F)F)ccn3)nn12)C(=O)NC [Example 368, N-methyl-N^2-{2-[4-(trifluoromethyl)pyridin-2-yl][1,2,4]triazolo[1,5-c]quinazolin-5-yl}-D-norvalinamide] |  |

| SMILES | IC50 (AHR [1]) [M] | IC50 (AHR [2]; [3]) [nM] | IC50 (AHR [2]; read-out: AHR Antagonism Mouse IC50, mouse Hepa 1c1c7 cells, 200 μM kynurenic acid, 20 hours) [nM] |
| --- | --- | --- | --- |
| O=C1NCCCC[C@H]1Nc1nc2ccccc2c2nc(-c3cc(C(F)(F)F)ccn3)nn12 [Example 363, (3R)-3-({2-[4-(trifluoromethyl)pyridin-2-yl][1,2,4]triazolo[1,5-c]quinazolin-5-yl}amino)azepan-2-one] | 3.5e-08 |  | 10.7 |
